Reference: PMC7707092, “Discovery and characterization of ORM‐11372, a novel inhibitor of the sodium‐calcium exchanger with positive inotropic activity” (British Journal of Pharmacology, 2020)
Where “and” joins values, the source holds several entries; their conditions need not be identical. Equal values may be shown once.

Tests used:
MAO A = molecular target: T1, MAO A (Homo sapiens, UniProt P21397); assay: MAO A inhibition (Table S2); type: biochemical
T1 sequence (P21397 1-527): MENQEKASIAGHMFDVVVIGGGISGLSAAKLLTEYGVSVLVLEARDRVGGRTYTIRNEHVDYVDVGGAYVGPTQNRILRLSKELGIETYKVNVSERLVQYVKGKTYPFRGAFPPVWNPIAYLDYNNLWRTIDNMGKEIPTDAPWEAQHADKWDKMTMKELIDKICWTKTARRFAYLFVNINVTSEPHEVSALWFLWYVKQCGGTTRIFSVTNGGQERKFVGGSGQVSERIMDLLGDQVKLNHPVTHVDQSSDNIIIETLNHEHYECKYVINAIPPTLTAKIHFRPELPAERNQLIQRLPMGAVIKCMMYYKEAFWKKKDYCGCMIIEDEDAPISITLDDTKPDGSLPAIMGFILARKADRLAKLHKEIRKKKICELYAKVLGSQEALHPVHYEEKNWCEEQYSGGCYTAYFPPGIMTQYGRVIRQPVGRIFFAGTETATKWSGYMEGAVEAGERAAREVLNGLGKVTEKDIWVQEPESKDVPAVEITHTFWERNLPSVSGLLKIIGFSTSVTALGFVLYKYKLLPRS

human NCX 1.1 = molecular target: T2, human NCX 1.1 (Homo sapiens, UniProt P32418); assay: Fluorescence screening assay for hNCX 1.1 inhibition (reverse mode, Sf9 cells); type: cell-based; conditions: for IC50: Sf9 cells expressing human NCX1.1, reverse mode, fluorescence, n=3 assays
T2 construct: expressed in transfected cells
Description: Spodoptera frugiperda (Sf9; RRID:CVCL_0549) cells are widely used for the transient and stable expression of recombinant proteins. Here, Sf9 cells were stably transfected with human NCX 1.1 and maintained in spinner flasks with insect cell culture medium (TNM‐FH), supplemented with 10% FBS, antibiotic–antimycotic solution, and 50 μg·ml^−1 of blasticidin at 28°C in a non‐humidified, CO2‐free atmosphere. The Sf9 cell suspension was subcultured three times a week.
NCX reverse mode activity was stimulated via a 50% dilution of the extracellular Na^+ level using the internal pipettor of FLEXstation, a fluorescence imaging plate reader (Molecular Devices, USA), while simultaneously monitoring intracellular calcium levels. After dilution, the concentration of other ions remained the same, but Na^+ concentration was diluted to the half of original concentration of 172 to 86 mM. For Sf9 insect cells, normal extracellular Na^+ ion concentration is 172 mM. Typically, 50 μl of a solution containing 150,000–200,000 Sf9–NCX cells was loaded onto each well of a 96‐well plate. Cells were preincubated with the intracellular calcium dye Fluo‐4 and Fluo‐6, and the concentrations of the test compound (three replicates) were determined for about 1 h at room temperature before experimentation. The extracellular solution contained (in mM) 172 NaCl, 10 HEPES, 1 CaCl2, 1.2 MgCl2, 0.33 NaH2PO4, 5 glucose, and 5 probenecid. The pH was adjusted to 7.4 with NaOH. The extracellular Na^+ was diluted by the addition of a Na^+‐free extracellular solution (containing in mM: 147 N‐methyl‐D‐glucamine (NMDG), 10 HEPES, 1 CaCl2, 1.2 MgCl2, 0.33 NaH2PO4, and 5 glucose with the pH adjusted by HCl to 7.4)‐induced robust and reproducible elevation of intracellular calcium. The osmolarity of both solutions was adjusted to 340–355 mOsm in order to match the Sf9 cell media osmolarity. In each plate, the IC50 determination for each test compound was based on relative fluorescence changes in comparison with control and 5‐mM nickel acetate‐induced NCX inhibition.

[1] = test system: human ventricular trabeculae

SMILES	MAO A inhibition (MAO A; 10 μM) [%]	IC50 (human NCX 1.1)	STV and triangulation (pro‐arrhythmia markers) ([1]; 1 or 2 Hz, ORM‐11372 any tested concentration, dofetilide 0.1 μM (positive control))	APD30, APD50 and APD90 ([1]; up to 10 μM, 1‐ and 2‐Hz pacing)	inhibition at 10 µM (MAO A; 10 μM) [%]	potency as NCX inhibitor relative to SEA0400 (human NCX 1.1)	IC50 (MAO A) [nM]
O=C(CN1CCC(O)CC1)Nc1ccc(Oc2ccc3c(c2)CCC(c2ccccc2)O3)nc1 (stereo not drawn) [ORM-10962]	11	197 nM					
Nc1cccc(-c2ccc(CNc3ccc(F)cc3)o2)c1 [ORM‐11372]		6.2 nM and 6 nM	no effects	no significant changes	29	more than 10 times	
CCOc1ccc(Oc2ccc(OCc3cc(F)ccc3F)cc2)c(N)c1 [SEA0400, reference compound]		376 nM					4340
